Entries after “also recorded” stand apart in the source; their conditions may differ.
How the values were obtained:
TSPO = TSPO (Rattus norvegicus, UniProt P16257); test: In vitro receptor binding (NIMH PDSP)
From the text: (§1) A second approach to target identification was to test the binding affinity of hit compounds against a panel of 43 human and rodent neurotransmitter-related targets. […]. Several hit compounds bound to multiple targets, including compound 7145248, which bound to TSPO, the benzodiazepine receptor (BZP), dopamine transporter, and the alpha 2b receptor (Fig. 3d). The most common targets (binding > 5 compounds) included BZP, sigma 2, HTR2A/B/C, HTR6, and TSPO (Fig. 3c, d). TSPO, previously known as the peripheral benzodiazepine receptor (PBR) (because it was originally identified as a binding site for benzodiazepine anxiolytic drugs), is a mitochondrial protein that supplies cholesterol to steroid-producing enzymes in the brain[36]. TSPO ligands are thought to enhance GABAergic signaling by increasing neurosteroid production. However, some TSPO ligands, including benzodiazepines and zolpidem, also bind to GABAARs directly. […] Of the 14 compounds that bound to TSPO in vitro, 5 compounds potentiated GABAAR in FLIPR assays (Fig. 3c; 2f, green arrowheads).
(§2) In vitro binding assays and Ki data were generated by the National Institute of Mental Health’s Psychoactive Drug Screening Program (PDSP), contract no. HHSN-271-2008-00025-C (NIMH PDSP), for assay details: http://pdsp.med.unc.edu/PDSP%20Protocols%20II%202013-03-28.pdf. Normalized Ki (npKi) values were generated as follows: npKi = 4 + (−log10 (Ki))[64].

alpha 2b receptor = target: T1, alpha 2b receptor (Homo sapiens, UniProt P18089); test: In vitro receptor binding (NIMH PDSP); conditions: in words; binding counted at Ki < 10 μM
T1 sequence (P18089 1-450): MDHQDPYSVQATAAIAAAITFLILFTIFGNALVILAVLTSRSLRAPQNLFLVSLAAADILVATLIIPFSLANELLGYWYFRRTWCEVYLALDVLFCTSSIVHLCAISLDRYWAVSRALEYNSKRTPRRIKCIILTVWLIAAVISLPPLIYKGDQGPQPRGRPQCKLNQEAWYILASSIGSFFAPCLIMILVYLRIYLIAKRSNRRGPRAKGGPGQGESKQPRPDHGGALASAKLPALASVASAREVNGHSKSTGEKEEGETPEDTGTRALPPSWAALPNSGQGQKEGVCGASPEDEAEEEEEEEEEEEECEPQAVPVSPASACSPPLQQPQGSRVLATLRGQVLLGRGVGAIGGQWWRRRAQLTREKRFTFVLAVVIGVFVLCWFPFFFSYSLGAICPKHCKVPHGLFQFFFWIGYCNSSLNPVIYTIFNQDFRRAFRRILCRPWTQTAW
From the text: as §1, §2

dopamine transporter = dopamine transporter (Homo sapiens, UniProt Q01959); test: In vitro receptor binding (NIMH PDSP)
From the text: as §1, §2

[1] = target: benzodiazepine receptor (BZP); test: In vitro receptor binding (NIMH PDSP); conditions: in words; binding counted at Ki < 10 μM
From the text: as §1, §2

[2] = test system: human GABAARs (α1β2 and α1β2γ2); assay type: cell-based; conditions: for Ave Norm FLIPR Score / FLIPR Results: compound at 20 uM then 5 uM GABA; for Ave Norm FLIPR Score: DMSO = 1; for FLIPR Results: Positive/Negative; for GABAAR PAM activity in FLIPR, in words: in the presence of GABA
From the text: To determine if these compounds targeted human GABAARs, we tested them in a fluorescent imaging plate reader (FLIPR) assay on HEK293 cells transfected with α1β2 and α1β2γ2 human GABAAR subtypes. […]. […] While some of the compounds appeared to function in this assay as negative allosteric modulators (NAMs), reductions in fluorescence were likely due to toxicity-induced cell loss (Fig. 2f, Supplementary Table 5).
We used the FLIPR system (Molecular Devices) to quantify GABA-evoked activity of human GABAARs. We chose a membrane potential dye (Molecular Devices) to measure changes in membrane potentials and stably transfected HEK293 cells that expressed α1, β2 and γ2. Since we observed an increase in GABA-evoked responses when transfected with γ2 transiently, we describe the cells as having a low level of γ-subunit expression, indicating heterogeneity of GABAAR compositions in the cell (α1β2 or α1β2γ2). To assay for direct agonists, fluorescence was subtracted pre- and post compound addition. To assay for PAMs, cells were treated with compound at 20 uM and then with 5 uM GABA.

adult zebrafish = test: Behavioral responses of adult zebrafish; conditions: in words
zebrafish [3] = assay type: in vivo; conditions: for rescue of behavioral phenotypes by pretreatment with the GABAAR antagonist PTX: violet light and eASR phenotypes, in words
zebrafish [4] = test: Optovin-response suppression assay (pain-related); conditions: in words; relative to concentrations that caused eASRs
From the text: To determine if any of the hit compounds may be analgesic, we used optovin-induced motor activity as a potential analgesia-related assay.

zebrafish [5] = test: Cortisol detection assay; assay type: in vivo; conditions: 7-day old larvae treated 1 h; in words
Protocol: Cortisol levels were measured in zebrafish. Briefly, 15, 7-day old larvae were treated with the indicated compounds for 1 h. Larvae were anesthetized in ice-cold egg water and then snap-froze in an ethanol/dry ice bath. Larvae were then homogenized in 100 μL of water. Cortisol was extracted from the homogenate with 1 mL of ethyl acetate, the resulting supernatant was collected and the solvent allowed to evaporate. Cortisol was dissolved in 0.2% bovine serum albumin (A7030, Sigma) and frozen at −20 °C. For cortisol ELISA experiments, 96-well plates (VWR International) were treated with cortisol antibody (P01-92-94M-P, EastCoast Bio; […] in PBS) for 16 h at 4 °C, washed, and blocked with 0.1% BSA in PBS. Cortisol samples and cortisol-HRP (P91-92-91H, EastCoast Bio) were incubated at room temperature for 2 h and washed extensively with PBS containing 0.05% Tween-20 (Invitrogen). Detection of HRP was performed using tetramethylbenzidine (TMB: 22166-1, Biomol) and Tetrabutylammonium borohydride (TBABH: 230170-10 G, Sigma). Reaction was stopped using 1 M H2SO4. Absorbance was read at 450 nm in an ELISA plate reader (SpectraMax MS, Molecular Devices).

zebrafish [6] = assay type: in vivo
Protocol: (§3) Behavioral assays for pERK. Animals were treated with DMSO or drug for one hour then exposed to a low-volume acoustic stimulus every 10 seconds for 10 minutes. Optovin-treated animals were stimulated with violet light for one second every 10 seconds for 10 minutes. Videos were recorded to measure response to the stimulus and quantified by motion index (MI). […]

zebrafish [7] = test: Viability of anesthetic treated animals; assay type: in vivo; conditions: zebrafish, in vivo
Protocol: as §3, with “(MI). Animals were immediately” for “(MI).”
High speed imaging. Digital video was recorded at 500-1000 frames per second using an Integrated Design Tools NX5-S1 digital camera. Assay duration was 500-1000 ms. Low amplitude tap stimuli was delivered as described above. Videos and still images were assembled using Fiji (imageJ) and […]
RNAscope. Zebrafish (6 dpf) were fixed using 10% normal buffered formaldehyde overnight at 4 °C, dehydrated in 100% methanol and stored at -20 °C until the assay was performed. Fluorescent in situ hybridization was performed using the RNAScope kit (Advanced Cell Diagnostics)4 with the following modifications: target retrieval was performed using 150 mM Tris pH 9.5 for 15 minutes at 70 °C, washes were performed using 0.2x SSCT (0.01% Tween-20, […], 0.3mM TriNa-citrate, pH7), samples were stored overnight after probe hybridization and 2x 5 minute washes in 5x SSC ([…], pH7) at room temperature before amplification and detection steps were performed the following day.
Viability. Animals were scored manually to determine viability after anesthetic treatments. 100 animals were scored per condition at 10 minutes, 1 hour and 5 hours post treatment. Strong heart rate was observed under a dissecting scope (Leica M-80) for our viability score. […]
rdkit function FingerprintMols package written for python. Tanimoto similarity function was used with a […]

Sequence of dopamine transporter (Q01959 whole entry): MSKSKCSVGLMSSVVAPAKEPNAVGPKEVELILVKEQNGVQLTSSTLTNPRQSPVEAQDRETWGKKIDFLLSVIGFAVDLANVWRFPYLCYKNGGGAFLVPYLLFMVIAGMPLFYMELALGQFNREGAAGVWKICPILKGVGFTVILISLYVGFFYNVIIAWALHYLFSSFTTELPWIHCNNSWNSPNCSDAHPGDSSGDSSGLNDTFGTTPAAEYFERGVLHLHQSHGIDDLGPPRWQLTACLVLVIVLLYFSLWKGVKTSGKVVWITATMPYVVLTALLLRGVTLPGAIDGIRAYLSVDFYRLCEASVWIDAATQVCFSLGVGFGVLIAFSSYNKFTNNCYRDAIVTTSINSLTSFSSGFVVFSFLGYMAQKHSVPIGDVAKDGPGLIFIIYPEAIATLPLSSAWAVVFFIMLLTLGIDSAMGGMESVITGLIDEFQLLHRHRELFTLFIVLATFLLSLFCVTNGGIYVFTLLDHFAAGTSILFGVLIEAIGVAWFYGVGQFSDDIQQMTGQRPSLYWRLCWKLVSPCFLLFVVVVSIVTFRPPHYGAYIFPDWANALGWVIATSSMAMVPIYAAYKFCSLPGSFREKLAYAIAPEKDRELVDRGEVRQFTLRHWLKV
Sequence of TSPO (P16257 whole entry): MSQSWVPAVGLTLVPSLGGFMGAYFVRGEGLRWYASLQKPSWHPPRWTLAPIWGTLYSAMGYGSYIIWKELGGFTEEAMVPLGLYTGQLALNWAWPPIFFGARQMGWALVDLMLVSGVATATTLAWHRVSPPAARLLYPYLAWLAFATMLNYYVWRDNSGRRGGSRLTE

SMILES	binding (TSPO)	binding (alpha 2b receptor)	binding (dopamine transporter)	binding [1]	Ave Norm FLIPR Score [2]	violet light response and acoustic startle in adult animals (adult zebrafish)	phenocopy (zebrafish [3]; […], positive/negative)	rescue of behavioral phenotypes by pretreatment with the GABAAR antagonist PTX (zebrafish [3])	optovin response (optovin-induced motor activity) (zebrafish [4])	FLIPR Results [2]	GABAAR PAM activity in FLIPR, in words [2]	cortisol levels (zebrafish [5])	pERK labeling (neuronal activity) (zebrafish [6]; in words)	pERK labeling in the caudal hindbrain at higher concentration (zebrafish [6]; zebrafish, in vivo)	eASRs at higher concentration (zebrafish [3]; 50 µM compared to 6 µM)	Average phenoscore of etomidate-treated positive controls (zebrafish [3]; etomidate 6.5 uM, versus DMSO 0.2)	percent animals responding (startle frequency) (zebrafish [3]; etomidate 6.25 µΜ, dampened solenoid stimulus, 100 animals, controls 2%) [%]	toxicity at the concentrations that caused eASRs (zebrafish [7])
O=C(NCc1cccc(Oc2ccccc2)c1)C(=O)c1c[nH]c2ccccc12 [compound 7145248]	bound	bound	bound	bound	-24.79	–	–	–	–	–	–	–	–	–	–	–	–	–
CCc1cc2c(=O)c(-c3ccccc3Cl)c(C)oc2cc1OC [compound 7013338]	–	–	–	–	–	reducing the violet light response, while increasing acoustic startle	positive	partially rescued	did not suppress the optovin response	Positive	potentiated GABAARs significantly greater than positive controls; also recorded: significantly greater than the positive controls; also recorded: the most effective hit compound in the FLIPR assays; also recorded: activated human GABAARs more than any other hit compound	–	–	–	–	–	–	–
O=S(=O)(Nc1cccc(Br)c1)c1ccc2c(c1)OCCO2 [compound 6225936]	–	–	–	–	-14.7	–	–	–	only reduced the optovin response at concentrations that also reduced eASRs	–	–	None of these compounds reduced cortisol levels	–	–	–	–	–	–
CCOC(=O)c1cncn1[C@H](C)c1ccccc1 [etomidate]	–	–	–	–	50.67	reducing the violet light response, while increasing acoustic startle	–	rescued	suppressed the optovin response	Positive	increased fluorescence in the presence of GABA	lowered cortisol levels	broadly reduced	decreased pERK labeling in the caudal hindbrain	suppressed eASRs	0.71	85	Neither etomidate or propofol was toxic

Source: PMC6733874, “Zebrafish behavioural profiling identifies GABA and serotonin receptor ligands related to sedation and paradoxical excitation” (Nature Communications, 2019)
